# According to ChEMBL document CHEMBL1129497, “Guanine, pyrazolo[3,4-d]pyrimidine, and triazolo[4,5-d]pyrimidine (8-azaguanine) phosphonate acyclic derivatives as inhibitors of purine nucleoside phosphorylase” (J Med Chem, 1996):
# Target: T1, Purine nucleoside phosphorylase (Homo sapiens, UniProt P00491)
# T1 sequence (P00491 whole entry): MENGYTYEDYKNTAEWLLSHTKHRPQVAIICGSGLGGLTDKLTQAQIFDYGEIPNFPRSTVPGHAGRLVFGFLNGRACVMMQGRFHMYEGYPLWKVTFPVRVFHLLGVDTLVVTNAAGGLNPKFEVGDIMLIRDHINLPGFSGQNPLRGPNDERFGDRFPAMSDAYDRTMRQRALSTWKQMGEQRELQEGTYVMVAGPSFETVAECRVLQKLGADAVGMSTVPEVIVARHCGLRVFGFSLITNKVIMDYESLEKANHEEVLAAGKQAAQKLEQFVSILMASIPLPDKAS
# Test: In vitro inhibition of purine nucleoside phosphorylase isolated from human erythrocytes.
row,Structure (SMILES),Ki
1,Nc1nc(O)c2nn(COCCCCCP(=O)(O)O)nc2n1,550 nM
2,Nc1nc2c(ncn2COCCCCOP(=O)(O)O)c(=O)[nH]1,51 nM
3,Nc1nc(O)c2ncn(CCCCCCCP(=O)(O)O)c2n1,530 nM
4,Nc1nc2c(cnn2COCCCCCCP(=O)(O)O)c(=O)[nH]1,630 nM
5,Nc1nc2c(nnn2COCCCCCP(=O)(O)O)c(=O)[nH]1,96 nM
6,Nc1nc2c(nnn2COCCCCP(=O)(O)O)c(=O)[nH]1,48 nM
7,Nc1nc(O)c2nnn(CCCCP(=O)(O)O)c2n1,7300 nM
8,Nc1nc2c(cnn2COCCCCCP(=O)(O)O)c(=O)[nH]1,230 nM
9,Nc1nc2c(ncn2CCCCCCCCCCP(=O)(O)O)c(=O)[nH]1,1600 nM
10,Nc1nc2c(ncn2COCCCCCP(=O)(O)O)c(=O)[nH]1,160 nM
11,Nc1nc2c(cnn2CCCCCCCP(=O)(O)O)c(=O)[nH]1,580 nM
12,Nc1nc2c(cnn2CCCCCCCCP(=O)(O)O)c(=O)[nH]1,1100 nM
13,Nc1nc2c(ncn2CCCCCCC(F)(F)P(=O)(O)O)c(=O)[nH]1,57 nM
14,Nc1nc2c(ncn2COCCCCCCP(=O)(O)O)c(=O)[nH]1,220 nM
15,Nc1nc(O)c2ncn(COCCCCP(=O)(O)O)c2n1,56 nM
16,Nc1nc(O)c2ncn(CCCCCCCCP(=O)(O)O)c2n1,390 nM
17,Nc1nc(O)c2nnn(COCCCCCCP(=O)(O)O)c2n1,190 nM
18,Nc1nc(O)c2nnn(CCCCCCP(=O)(O)O)c2n1,360 nM
19,Nc1nc2c(cnn2CCCCCCC(F)(F)P(=O)(O)O)c(=O)[nH]1,49 nM
20,Nc1nc(O)c2nnn(CCCCCP(=O)(O)O)c2n1,65 nM
